In ChEMBL document CHEMBL4364280 (Eur J Med Chem, 2019):
Active and inactive are the calls of the source. The calls are words filed in the database; no cut-off is given here.

Columns and labels:
[1] = target: T1, 5-hydroxytryptamine receptor 6 (Homo sapiens, UniProt P50406); test: Displacement of [3H]-LSD from human 5-HT6R expressed in human HEK293 cells incubated for 1 hr by radioligand binding assay; format: cell-based
[2] = target: D(2) dopamine receptor (Homo sapiens, UniProt P14416); test: Displacement of [3H]-raclopride from human D2L receptor expressed in human HEK293 cells incubated for 1 hr by radioligand binding assay; format: cell-based
[3] = target: T2, 5-hydroxytryptamine receptor 1A (Homo sapiens, UniProt P08908); test: Displacement of [3H]-8-OH-DPAT from human 5-HT1A expressed in human HEK293 cells assessed as inhibitory constant incubated for 1 hr by radioligand binding assay; format: cell-based
T2 sequence (P08908 whole entry): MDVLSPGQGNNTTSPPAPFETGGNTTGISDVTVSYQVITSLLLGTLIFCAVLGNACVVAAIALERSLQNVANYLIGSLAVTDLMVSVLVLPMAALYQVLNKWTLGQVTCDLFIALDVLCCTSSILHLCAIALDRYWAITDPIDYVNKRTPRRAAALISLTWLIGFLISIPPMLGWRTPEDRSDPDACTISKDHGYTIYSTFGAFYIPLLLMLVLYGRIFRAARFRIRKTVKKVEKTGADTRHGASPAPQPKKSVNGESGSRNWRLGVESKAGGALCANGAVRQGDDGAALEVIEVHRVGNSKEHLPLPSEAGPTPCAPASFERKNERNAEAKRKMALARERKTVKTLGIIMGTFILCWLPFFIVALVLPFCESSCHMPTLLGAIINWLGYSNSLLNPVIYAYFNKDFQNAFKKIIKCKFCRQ

[4] = target: 5-hydroxytryptamine receptor 7 (Homo sapiens, UniProt P34969); test: Displacement of [3H]-5-CT from human 5-HT7R expressed in human HEK293 cells assessed as inhibitory constant incubated for 1 hr by radioligand binding assay; format: cell-based
[5] = target: 5-hydroxytryptamine receptor 2A (Homo sapiens, UniProt P28223); test: Displacement of [3H]-Ketanserin from human 5-HT2A expressed in CHO-K1 cells incubated for […] by radioligand binding assay; format: cell-based
[6] = target: T1, 5-hydroxytryptamine receptor 6; test: Agonist activity at recombinant human 5HT6 receptor expressed in CHOK1 cells co-expressing Galpha16/aequorin assessed as increase in calcium mobilization and measured for 60 secs in presence of coelenterazine by luminescence assay relative to control; format: functional, cell-based
[7] = target: T1, 5-hydroxytryptamine receptor 6; test: Antagonist activity at recombinant human 5HT6 receptor expressed in CHOK1 cells co-expressing Galpha16/aequorin assessed as reduction in serotonin-induced calcium mobilization flux preincubated for 30 mins followed by serotonin addition in presence of coelenterazine h by luminescence assay; format: functional, cell-based
[8] = tested on: Rattus norvegicus; test: Antidepressant activity in Wistar rat assessed as reduction in immobility at 1 mg/kg, ip measured after 60 mins by forced swim test; format: functional; parameters: scale not given: the % may be the effect or the level left
[9] = tested on: Rattus norvegicus; test: Antidepressant activity in Wistar rat assessed as total distance moved at 1 mg/kg, ip pretreated for 60 mins and measured for 5 mins by open field test (reference value: 929 +/- 36 cm); format: functional
[10] = tested on: Rattus norvegicus; test: Antidepressant activity in Wistar rat assessed as ambulation-X movement moved at 1 mg/kg, ip pretreated for 60 mins and measured for 5 mins by open field test (reference value: 213 +/- 13); format: functional
[11] = tested on: Rattus norvegicus; test: Antidepressant activity in Wistar rat assessed as ambulation-Y movement moved at 1 mg/kg, ip pretreated for 60 mins and measured for 5 mins by open field test (reference value: 187 +/- 14); format: functional
[12] = tested on: Rattus norvegicus; test: Antidepressant activity in Wistar rat assessed as rear movement moved at 1 mg/kg, ip pretreated for 60 mins and measured for 5 mins by open field test (reference value: 68 +/- 7); format: functional
[13] = tested on: SH-SY5Y; test: Cytotoxicity against human SH-SY5Y cells assessed as decrease in cell viability at 100 uM incubated for 72 hrs by MTS assay; format: cell-based
[14] = Mutagenicity in Salmonella typhimurium TA100 assessed as fold increase over MCB at 1 uM preincubated for 90 mins and measured after 72 hrs by Ames test; format: toxicity; conditions: salmonella enterica subsp. enterica serovar typhimurium
[15] = Mutagenicity in Salmonella typhimurium TA100 assessed as fold increase over MCB at 10 uM preincubated for 90 mins and measured after 72 hrs by Ames test; format: toxicity; conditions: salmonella enterica subsp. enterica serovar typhimurium
[16] = Mutagenicity in Salmonella typhimurium TA100 assessed as increase in revertant colonies at 1 uM preincubated for 90 mins and measured after 72 hrs by Ames test; format: toxicity; conditions: salmonella enterica subsp. enterica serovar typhimurium
[17] = Mutagenicity in Salmonella typhimurium TA100 assessed as increase in revertant colonies at 10 uM preincubated for 90 mins and measured after 72 hrs by Ames test; format: toxicity; conditions: salmonella enterica subsp. enterica serovar typhimurium
[18] = Selectivity ratio of CC50 for cytotoxicity against human SH-SY5Y cells to ratio of Ki for human 5-HT6R expressed in human HEK293 cells
[19] = Ratio of test compound CC50 to doxorubicin CC50 for cytotoxicity against human SH-SY5Y cells incubated for 72 hrs by MTS assay; format: cell-based
[20] = tested on: Rattus norvegicus; test: Antidepressant activity in Wistar rat assessed as reduction in immobility at 10 mg/kg, ip measured after 30 mins by forced swim test; format: functional, organism-based
[21] = tested on: Rattus norvegicus; test: Antidepressant activity in Wistar rat assessed as reduction in immobility at 0.1 to 1 mg/kg, ip measured after 60 mins by forced swim test; format: functional, organism-based
[22] = tested on: Rattus norvegicus; test: Antidepressant activity in Wistar rat assessed as reduction in immobility at 0.3 to 3 mg/kg, ip measured after 60 mins by forced swim test; format: functional; parameters: scale not given: the % may be the effect or the level left
[23] = tested on: Rattus norvegicus; test: Antidepressant activity in Wistar rat assessed as reduction in immobility at 0.1 mg/kg, ip measured after 60 mins by forced swim test; format: functional, organism-based
[24] = tested on: Rattus norvegicus; test: Antidepressant-like activity in Wistar rat assessed as total distance moved at 0.3 mg/kg, ip pretreated for 60 mins and measured for 5 mins by open field test (reference value: 2165 +/- 119 cm); format: functional
[25] = tested on: Rattus norvegicus; test: Antidepressant activity in Wistar rat assessed as ambulation-X movement moved at 0.3 mg/kg, ip pretreated for 60 mins and measured for 5 mins by open field test (reference value: 190 +/- 12); format: functional
[26] = tested on: Rattus norvegicus; test: Antidepressant activity in Wistar rat assessed as ambulation-Y movement moved at 0.3 mg/kg, ip pretreated for 60 mins and measured for 5 mins by open field test (reference value: 187 +/- 15); format: functional
[27] = tested on: Rattus norvegicus; test: Antidepressant activity in Wistar rat assessed as rear movement moved at 0.3 mg/kg, ip pretreated for 60 mins and measured for 5 mins by open field test (reference value: 57 +/- 6); format: functional

T1 sequence (P50406 whole entry): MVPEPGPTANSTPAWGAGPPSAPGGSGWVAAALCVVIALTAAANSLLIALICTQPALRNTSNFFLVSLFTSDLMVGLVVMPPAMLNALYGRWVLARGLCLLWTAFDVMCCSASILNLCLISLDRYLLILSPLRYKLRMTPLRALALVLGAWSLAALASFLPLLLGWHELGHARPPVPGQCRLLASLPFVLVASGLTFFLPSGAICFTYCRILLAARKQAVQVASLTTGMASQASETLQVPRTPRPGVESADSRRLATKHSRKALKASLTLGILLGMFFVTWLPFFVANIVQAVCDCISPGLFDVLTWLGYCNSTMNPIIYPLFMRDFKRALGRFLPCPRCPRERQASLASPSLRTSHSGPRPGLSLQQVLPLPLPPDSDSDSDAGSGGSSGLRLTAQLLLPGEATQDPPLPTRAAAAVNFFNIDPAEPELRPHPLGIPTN
Sequence of D(2) dopamine receptor (P14416 whole entry): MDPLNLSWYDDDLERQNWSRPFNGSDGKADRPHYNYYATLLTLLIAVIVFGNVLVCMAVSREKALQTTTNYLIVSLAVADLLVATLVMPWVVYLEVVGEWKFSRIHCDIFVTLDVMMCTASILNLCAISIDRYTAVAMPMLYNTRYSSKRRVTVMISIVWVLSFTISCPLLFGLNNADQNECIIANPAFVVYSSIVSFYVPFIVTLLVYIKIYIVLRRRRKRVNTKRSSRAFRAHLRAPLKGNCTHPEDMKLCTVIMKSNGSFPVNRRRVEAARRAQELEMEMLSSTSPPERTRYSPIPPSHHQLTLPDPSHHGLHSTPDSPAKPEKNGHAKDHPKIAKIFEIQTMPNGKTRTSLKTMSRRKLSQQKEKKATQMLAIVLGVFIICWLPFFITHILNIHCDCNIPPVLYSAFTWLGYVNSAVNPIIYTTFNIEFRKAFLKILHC
Sequence of 5-hydroxytryptamine receptor 7 (P34969 whole entry): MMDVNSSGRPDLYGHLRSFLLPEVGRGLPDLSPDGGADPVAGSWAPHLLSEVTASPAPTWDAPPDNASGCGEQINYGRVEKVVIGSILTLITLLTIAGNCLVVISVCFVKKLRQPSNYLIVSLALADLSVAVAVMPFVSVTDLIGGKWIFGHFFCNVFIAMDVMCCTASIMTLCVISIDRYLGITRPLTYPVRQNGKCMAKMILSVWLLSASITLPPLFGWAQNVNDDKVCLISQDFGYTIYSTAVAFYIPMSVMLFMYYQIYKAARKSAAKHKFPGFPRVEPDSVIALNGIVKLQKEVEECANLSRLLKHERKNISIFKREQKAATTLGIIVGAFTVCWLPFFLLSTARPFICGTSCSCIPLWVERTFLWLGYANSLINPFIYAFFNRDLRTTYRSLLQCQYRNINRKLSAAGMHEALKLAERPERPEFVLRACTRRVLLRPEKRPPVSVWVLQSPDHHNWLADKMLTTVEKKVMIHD
Sequence of 5-hydroxytryptamine receptor 2A (P28223 whole entry): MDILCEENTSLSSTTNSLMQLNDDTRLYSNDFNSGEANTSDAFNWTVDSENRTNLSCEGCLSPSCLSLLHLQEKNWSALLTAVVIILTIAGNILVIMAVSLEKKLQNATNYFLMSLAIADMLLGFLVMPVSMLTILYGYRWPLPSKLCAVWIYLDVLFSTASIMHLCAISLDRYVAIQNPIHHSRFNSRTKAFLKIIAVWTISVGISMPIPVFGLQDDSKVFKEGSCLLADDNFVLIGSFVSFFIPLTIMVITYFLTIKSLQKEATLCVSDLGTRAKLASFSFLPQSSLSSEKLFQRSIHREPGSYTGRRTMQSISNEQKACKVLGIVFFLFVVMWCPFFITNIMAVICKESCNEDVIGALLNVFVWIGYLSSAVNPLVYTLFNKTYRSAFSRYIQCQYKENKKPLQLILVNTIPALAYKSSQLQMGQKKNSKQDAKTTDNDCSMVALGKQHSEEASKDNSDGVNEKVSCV

Ki [1] | Ki [2] | Ki [3] | Ki [4] | Ki [5] | Structure (SMILES) | other results
0.126 µM | 0.329 µM | 1.68 µM | 0.614 µM | – | CN1CCN(c2nc(N)nc(CSc3ccccc3Cl)n2)CC1 | –
0.087 µM | 4.25 µM | 14.2 µM | 0.514 µM | 17.2 µM | Cc1ccccc1OCc1nc(N)nc(N2CCN(C)CC2)n1 | –
0.129 µM | 2.36 µM | 5.47 µM | 9.25 µM | – | CN1CCN(c2nc(N)nc(COc3ccccc3Cl)n2)CC1 | –
0.128 µM | 1.23 µM | 1.61 µM | 3.8 µM | – | CN1CCN(c2nc(N)nc(COc3ccc(Cl)cc3Cl)n2)CC1 | –
3.57 µM | 50.1 µM | > 1000 µM | 98.4 µM | 11.6 µM | CN1CCN(c2nc(N)nc(CS(=O)(=O)c3ccccc3Cl)n2)CC1 | –
0.207 µM | 0.74 µM | 15.1 µM | 10.7 µM | 2.27 µM | Cc1cccc(OCc2nc(N)nc(N3CCN(C)CC3)n2)c1 | –
– | 1.35 µM | 8.73 µM | 9.53 µM | 2.63 µM | CN1CCN(c2nc(N)nc(COc3ccccc3)n2)CC1 | –
0.023 µM | 1 µM | 4.54 µM | 38.7 µM | 1.83 µM | CC(Oc1ccccc1Cl)c1nc(N)nc(N2CCN(C)CC2)n1 (stereo not drawn) | Emax [6]: 1%; Kb [7]: 0.003 µM; Activity [8]: 22%; Activity [9]: 1005 cm; Activity [10]: 269; Activity [11]: 227; Activity [12]: 46; Activity [13]: Toxic; fold change (FC) [14]: 0.73; fold change (FC) [15]: 1; Activity [16]: 8; Activity [17]: 11; Selectivity ratio [18]: >4000; selectivity ratio at 72 h [19]: 100
0.355 µM | 1.22 µM | 3.58 µM | 5.84 µM | 0.197 µM | Cc1cc(OCc2nc(N)nc(N3CCN(C)CC3)n2)ccc1Cl | –
0.148 µM | 0.674 µM | 7.5 µM | 5.82 µM | – | CN1CCN(c2nc(N)nc(COc3cccc(Cl)c3)n2)CC1 | –
0.911 µM | 4.37 µM | 7.69 µM | 15.2 µM | – | Cc1cc(Cl)ccc1OCc1nc(N)nc(N2CCN(C)CC2)n1 | –

Continued, molecule first:

Structure (SMILES) | Ki [1] | Ki [2] | Ki [3] | Ki [4] | Ki [5] | other results
CC(Oc1cccc(Cl)c1)c1nc(N)nc(N2CCN(C)CC2)n1 (stereo not drawn) | 0.118 µM | 0.566 µM | 3.44 µM | 8.36 µM | 0.59 µM | –
CN1CCN(c2nc(N)nc(C[Se]c3ccccc3)n2)CC1 | – | 0.506 µM | – | – | – | –
CC([Se]c1ccccc1)c1nc(N)nc(N2CCN(C)CC2)n1 (stereo not drawn) | – | 0.656 µM | – | – | – | –
Cc1ccc(OCc2nc(N)nc(N3CCN(C)CC3)n2)cc1 | 0.235 µM | 2.92 µM | 28.5 µM | 16.1 µM | – | –
O=S(=O)(c1ccccc1)c1cnc2c(N3CCNCC3)cccc2c1 | – | – | – | – | – | Emax [6]: 2%
COc1ccc(S(=O)(=O)Nc2cc(Cl)cc(Cl)c2OC)cc1N1CCNCC1 | – | – | – | – | – | Activity [20]: Active
CC(Sc1ccccc1Cl)c1nc(N)nc(N2CCN(C)CC2)n1 (stereo not drawn) | 0.019 µM | 0.52 µM | 3.38 µM | 4.57 µM | 0.407 µM | Emax [6]: 1%; Kb [7]: 0.0029 µM; Activity [21]: inactive; Activity [13]: Toxic; fold change (FC) [14]: 0.94; fold change (FC) [15]: 0.76; Activity [16]: 10.33; Activity [17]: 8.33; Selectivity ratio [18]: >4000; selectivity ratio at 72 h [19]: 100
CN1CCN(c2nc(N)nc(CSc3ccccc3)n2)CC1 | 0.026 µM | 0.734 µM | 4.39 µM | 2.87 µM | 0.197 µM | –
Cc1ccc(C(C)C)c(OCc2nc(N)nc(N3CCN(C)CC3)n2)c1 | 0.011 µM | – | – | – | – | Emax [6]: 1%; Kb [7]: 0.0046 µM; Activity [22]: 20%; Activity [23]: inactive; Activity [24]: 2833 cm; Activity [25]: 307; Activity [26]: 290; Activity [27]: 56; Activity [13]: Toxic; fold change (FC) [14]: 0.55; fold change (FC) [15]: 0.47; Activity [16]: 4.67; Activity [17]: 4; Selectivity ratio [18]: >4000; selectivity ratio at 72 h [19]: 100
CN1CCN2c3ccccc3Cc3ccccc3C2C1 (stereo not drawn) | – | – | – | – | – | Emax [6]: 1%
